# Experimental data reported in patent publication US9102678B2, “Compounds and methods for inhibiting mitotic progression” (Millennium Pharmaceuticals, Inc., priority 2004, dated 2015).
# Molecular target: T1, recombinant murine Aurora A enzyme (Mus musculus, UniProt P97477)
# T1 construct: hexahistidine (His6) (N); made in house; host or cells: insect cells, baculovirus (Bac-to-Bac, Invitrogen)
# Test: Aurora A DELFIA Kinase Assay
# Type: biochemical
# Conditions: mouse Aurora A, 250 μM ATP; threshold less than or equal to 100 nM; read-out: IC50
# T1 sequence (P97477 whole entry): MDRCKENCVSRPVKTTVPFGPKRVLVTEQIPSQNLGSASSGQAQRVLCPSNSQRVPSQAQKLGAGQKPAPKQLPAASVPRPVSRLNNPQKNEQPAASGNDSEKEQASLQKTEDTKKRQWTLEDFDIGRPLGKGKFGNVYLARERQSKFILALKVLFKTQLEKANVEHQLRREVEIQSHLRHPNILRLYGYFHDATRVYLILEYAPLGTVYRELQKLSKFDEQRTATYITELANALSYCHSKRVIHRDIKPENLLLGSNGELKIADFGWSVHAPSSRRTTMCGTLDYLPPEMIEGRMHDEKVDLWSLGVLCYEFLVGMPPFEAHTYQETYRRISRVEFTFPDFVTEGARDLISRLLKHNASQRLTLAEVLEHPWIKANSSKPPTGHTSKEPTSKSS
row,Structure (SMILES),IC50
1,"O=C(O)c1ccc(Nc2ncc3c(n2)-c2ccc(C(=O)O)cc2C(c2ccccc2F)=NC3)cc1 [Compound I-249, 2-[(4-carboxyphenyl)amino]-7-(2-fluorophenyl)-5H-pyrimido[5,4-d][2]benzazepine-9-carboxylic acid]",≤ 100 nM
2,"CN(C)C1CCN(C(=N)c2ccc(Nc3ncc4c(n3)-c3ccc(Cl)cc3C(c3c(F)cccc3F)=NC4)cc2)C1 (stereo not shown) [Compound I-250, 9-chloro-7-(2,6-difluorophenyl)-N-{4-[[3-(dimethylamino)pyrrolidin-1-yl](imino)methyl]phenyl}-5H-pyrimido[5,4-d][2]benzazepin-2-amine]",≤ 100 nM
3,"CC1CN(C(=N)c2ccc(Nc3ncc4c(n3)-c3ccc(Cl)cc3C(c3c(F)cccc3F)=NC4)cc2)CC(C)N1 (stereo not shown) [Compound I-251, [9-Chloro-7-(2,6-difluoro-phenyl)-5H-benzo[c]pyrimido[4,5-e]azepin-2-yl]-{4-[(3,5-dimethyl-piperazin-1-yl)-imino-methyl]-phenyl}-amine]",≤ 100 nM
4,"CNC1CCCN(C(=O)c2ccc(Nc3ncc4c(n3)-c3ccc(Cl)cc3C(c3c(F)cccc3F)=NC4)cc2)C1 (stereo not shown) [Compound I-253, 9-chloro-7-(2,6-difluorophenyl)-N-(4-{[3-(methylamino)piperidin-1-yl]carbonyl}phenyl)-5H-pyrimido[5,4-d][2]benzazepin-2-amine]",≤ 100 nM
5,"COc1cccc(Nc2ncc3c(n2)-c2ccc(C(=O)O)cc2C(c2ccccc2F)=NC3)c1 [Compound I-256, 7-(2-fluorophenyl)-2-[(3-methoxyphenyl)amino]-5H-pyrimido[5,4-d][2]benzazepine-9-carboxylic acid]",≤ 100 nM
6,"O=C(O)C1CN(C(=O)c2ccc(Nc3ncc4c(n3)-c3ccc(Cl)cc3C(c3c(F)cccc3F)=NC4)cc2)CCN1 (stereo not shown) [Compound I-266, 4-(4-{[9-chloro-7-(2,6-difluorophenyl)-5H-pyrimido[5,4-d][2]benzazepin-2-yl]amino}benzoyl)piperazine-2-carboxylic acid]",≤ 100 nM
7,"CNC1CCN(C(=N)c2ccc(Nc3ncc4c(n3)-c3ccc(Cl)cc3C(c3c(F)cccc3F)=NC4)cc2)C1 (stereo not shown) [Compound I-268, 9-chloro-7-(2,6-difluorophenyl)-N-(4-{imino[3-(methylamino)pyrrolidin-1-yl]methyl}phenyl)-5H-pyrimido[5,4-d][2]benzazepin-2-amine]",≤ 100 nM
8,"CN(C)C1CCN(C(=O)c2cc(Nc3ncc4c(n3)-c3ccc(Cl)cc3C(c3c(F)cccc3F)=NC4)ccc2Cl)CC1 [Compound I-269, 9-chloro-N-(4-chloro-3-{[4-(dimethylamino)piperidin-1-yl]carbonyl}phenyl)-7-(2,6-difluorophenyl)-5H-pyrimido[5,4-d][2]benzazepin-2-amine]",≤ 100 nM
9,"CC1(C)CN=C(c2ccc(Nc3ncc4c(n3)-c3ccc(Cl)cc3C(c3c(F)cccc3F)=NC4)cc2)N1 [Compound I-270, 9-chloro-7-(2,6-difluorophenyl)-N-[4-(5,5-dimethyl-4,5-dihydro-1H-imidazol-2-yl)phenyl]-5H-pyrimido[5,4-d][2]benzazepin-2-amine]",≤ 100 nM
10,"NCC#Cc1ccc2c(c1)C(c1c(F)cccc1F)=NCc1cnc(Nc3ccc(C(=O)O)cc3)nc1-2 [Compound I-272, 4-{[9-(3-aminoprop-1-yn-1-yl)-7-(2,6-difluorophenyl)-5H-pyrimido[5,4-d][2]benzazepin-2-yl]amino}benzoic acid]",≤ 100 nM
11,"O=C(O)c1ccc(Nc2ncc3c(n2)-c2ccc(Br)cc2C(c2c(F)cccc2F)=NC3)cc1 [Compound I-274, 4-{[9-bromo-7-(2,6-difluorophenyl)-5H-pyrimido[5,4-d][2]benzazepin-2-yl]amino}benzoic acid]",≤ 100 nM
12,"O=C(O)c1ccc(Nc2ncc3c(n2)-c2ccc(Cl)cc2C(c2ccccc2C(F)(F)F)=NC3)cc1 [Compound I-277, 4-({9-chloro-7-[2-(trifluoromethyl)phenyl]-5H-pyrimido[5,4-d][2]benzazepin-2-yl}amino)benzoic acid]",≤ 100 nM
13,"CN1CCN(C(=O)Nc2ccc(Nc3ncc4c(n3)-c3ccc(Cl)cc3C(c3c(F)cccc3F)=NC4)cc2)CC1 [Compound I-280, 4-Methyl-piperazine-1-carboxylic acid {4-[9-chloro-7-(2,6-difluoro-phenyl)-5H-benzo[c]pyrimido[4,5-e]azepin-2-ylamino]-phenyl}-amide]",≤ 100 nM
14,"CNC1CCN(C(=O)c2cc(Nc3ncc4c(n3)-c3ccc(Cl)cc3C(c3c(F)cccc3F)=NC4)ccc2Cl)C1 (stereo not shown) [Compound I-281, 9-chloro-N-(4-chloro-3-{[3-(methylamino)pyrrolidin-1-yl]carbonyl}phenyl)-7-(2,6-difluorophenyl)-5H-pyrimido[5,4-d][2]benzazepin-2-amine]",≤ 100 nM
15,"CNC1CCN(C(=O)c2cc(Nc3ncc4c(n3)-c3ccc(Cl)cc3C(c3c(F)cccc3F)=NC4)ccc2Cl)CC1 [Compound I-282, 9-chloro-N-(4-chloro-3-{[4-(methylamino)piperidin-1-yl]carbonyl}phenyl)-7-(2,6-difluorophenyl)-5H-pyrimido[5,4-d][2]benzazepin-2-amine]",≤ 100 nM
16,N=C(c1ccc(Nc2ncc3c(n2)-c2ccc(Cl)cc2C(c2c(F)cccc2F)=NC3)cc1)N1CCC(N)C1 (stereo not shown) [Compound I-284],≤ 100 nM
17,"OC1CN=C(c2ccc(Nc3ncc4c(n3)-c3ccc(Cl)cc3C(c3c(F)cccc3F)=NC4)cc2)NC1 (stereo not shown) [Compound I-285, 2-(4-{[9-chloro-7-(2,6-difluorophenyl)-5H-pyrimido[5,4-d][2]benzazepin-2-yl]amino}phenyl)-1,4,5,6-tetrahydropyrimidin-5-ol]",≤ 100 nM

# Now from value to molecule:
row,IC50,Structure (SMILES)
1,≤ 100 nM,"CN(CCN)C(=O)c1ccc(Nc2ncc3c(n2)-c2ccc(Cl)cc2C(c2c(F)cccc2F)=NC3)cc1 [Compound I-252, N-(2-aminoethyl)-4-{[9-chloro-7-(2,6-difluorophenyl)-5H-pyrimido[5,4-d][2]benzazepin-2-yl]amino}-N-methylbenzamide]"
2,≤ 100 nM,"CNCCN(C)C(=O)c1ccc(Nc2ncc3c(n2)-c2ccc(Cl)cc2C(c2c(F)cccc2OC)=NC3)cc1 [Compound I-254, 4-{[9-chloro-7-(2-fluoro-6-methoxyphenyl)-5H-pyrimido[5,4-d][2]benzazepin-2-yl]amino}-N-methyl-N-[2-(methylamino)ethyl]benzamide]"
3,≤ 100 nM,"COc1cccc(F)c1C1=NCc2cnc(Nc3ccc(C(=O)N(C)CCN(C)C)cc3)nc2-c2ccc(Cl)cc21 [Compound I-255, 4-{[9-chloro-7-(2-fluoro-6-methoxyphenyl)-5H-pyrimido[5,4-d][2]benzazepin-2-yl]amino}-N-[2-(dimethylamino)ethyl]-N-methylbenzamide]"
4,≤ 100 nM,"CN(CCCN)C(=O)c1ccc(Nc2ncc3c(n2)-c2ccc(Cl)cc2C(c2c(F)cccc2F)=NC3)cc1 [Compound I-257, N-(3-aminopropyl)-4-{[9-chloro-7-(2,6-difluorophenyl)-5H-pyrimido[5,4-d][2]benzazepin-2-yl]amino}-N-methylbenzamide]"
5,≤ 100 nM,"CN(C)C1CN(C(=N)NC(=O)c2ccc(Nc3ncc4c(n3)-c3ccc(Cl)cc3C(c3c(F)cccc3F)=NC4)cc2)C1 [Compound I-259, 4-{[9-chloro-7-(2,6-difluorophenyl)-5H-pyrimido[5,4-d][2]benzazepin-2-yl]amino}-N-[[3-(dimethylamino)azetidin-1-yl](imino)methyl]benzamide]"
6,≤ 100 nM,"CC(C)(N)CNC(=O)c1ccc(Nc2ncc3c(n2)-c2ccc(Cl)cc2C(c2c(F)cccc2F)=NC3)cc1 [Compound I-260, N-(2-amino-2-methylpropyl)-4-{[9-chloro-7-(2,6-difluorophenyl)-5H-pyrimido[5,4-d][2]benzazepin-2-yl]amino}benzamide]"
7,≤ 100 nM,"CNCCCN(C)C(=O)c1ccc(Nc2ncc3c(n2)-c2ccc(Cl)cc2C(c2c(F)cccc2OC)=NC3)cc1 [Compound I-261, 4-{[9-chloro-7-(2-fluoro-6-methoxyphenyl)-5H-pyrimido[5,4-d][2]benzazepin-2-yl]amino}-N-methyl-N-[3-(methylamino)propyl]benzamide]"
8,≤ 100 nM,COc1cccc(F)c1C1=NCc2cnc(Nc3ccc(C(=O)N4CCCC(N)C4)cc3)nc2-c2ccc(Cl)cc21 (stereo not shown) [Compound I-262]
9,≤ 100 nM,"CNC1CCCN(C(=O)c2ccc(Nc3ncc4c(n3)-c3ccc(Cl)cc3C(c3c(F)cccc3OC)=NC4)cc2)C1 (stereo not shown) [Compound I-263, 9-chloro-7-(2-fluoro-6-methoxyphenyl)-N-(4-{[3-(methylamino)piperidin-1-yl]carbonyl}phenyl)-5H-pyrimido[5,4-d][2]benzazepin-2-amine]"
10,≤ 100 nM,"COc1cccc(F)c1C1=NCc2cnc(Nc3ccc(C(=O)N(C)CCCN)cc3)nc2-c2ccc(Cl)cc21 [Compound I-264, N-(3-aminopropyl)-4-{[9-chloro-7-(2-fluoro-6-methoxyphenyl)-5H-pyrimido[5,4-d][2]benzazepin-2-yl]amino}-N-methylbenzamide]"
11,≤ 100 nM,"COc1cccc(F)c1C1=NCc2cnc(Nc3ccc(C(=O)N(C)CCN)cc3)nc2-c2ccc(Cl)cc21 [Compound I-265, N-(2-aminoethyl)-4-{[9-chloro-7-(2-fluoro-6-methoxyphenyl)-5H-pyrimido[5,4-d][2]benzazepin-2-yl]amino}-N-methylbenzamide]"
12,≤ 100 nM,"CN(C)C1CN(C(=N)c2ccc(Nc3ncc4c(n3)-c3ccc(Cl)cc3C(c3c(F)cccc3F)=NC4)cc2)C1 [Compound I-267, 9-chloro-7-(2,6-difluorophenyl)-N-{4-[[3-(dimethylamino)azetidin-1-yl](imino)methyl]phenyl}-5H-pyrimido[5,4-d][2]benzazepin-2-amine]"
13,≤ 100 nM,"NC1CN(C(=O)c2ccc(Nc3ncc4c(n3)-c3ccc(Cl)cc3C(c3c(F)cccc3F)=NC4)cc2)C1 [Compound I-278, N-{4-[(3-aminoazetidin-1-yl)carbonyl]phenyl}-9-chloro-7-(2,6-difluorophenyl)-5H-pyrimido[5,4-d][2]benzazepin-2-amine]"
14,≤ 100 nM,"CNCCN(C)C(=O)c1cc(Nc2ncc3c(n2)-c2ccc(Cl)cc2C(c2c(F)cccc2F)=NC3)ccc1Cl [Compound I-283, 2-chloro-5-{[9-chloro-7-(2,6-difluorophenyl)-5H-pyrimido[5,4-d][2]benzazepin-2-yl]amino}-N-methyl-N-[2-(methylamino)ethyl]benzamide]"
